The values that follow come from US20070244153A1 (priority 2004, published 2007).

Series [1] concerns Plasmopara viticola. Nature of the series: Controlling effect against grape downy mildew (leaf disk immersion, 250 ppm). Type of series: in vivo. The conditions noted are these: grape leaf disk immersed 3 hours, 10th day after inoculation, untreated 60 to 70%. On the procedure:
The developed leaf of grape seedling (breed: Cabernet Sauvignon) grown in 1/2000 a pot was cut and prepared a leaf disk having a diameter of 32 mm. A solution of the compound in acetone was diluted with water to 250 ppm, and the leaf disk was immersed for 3 hours. The disk was taken from the agent solution, subjected to air-drying, and then inoculated by spray with a zoosporangia suspension of Plasmopara viticola. The test disk was incubated at 18° C. for 12 hours in a light-dark light cycle. On the 10th day after inoculation the infected area rate for the leaf disk was examined. Evaluation was carried out by the following criteria. The infected area rate for the untreated groups in the examination was 60 to 70%.

Series [2] has as its system Pseudoperonospora cubensis. Nature of the series: Controlling effect against cucumber downy mildew (spray on cucumber seedlings, 250 ppm). Type of series: in vivo. To be noted: 250 ppm spray, cucumber seedling 1-leaf stage, 7th day after inoculation; untreated 60 to 80%. As to the method:
A solution of the compound in acetone was diluted with water to 250 ppm, and the solution was sprayed to the cucumber seedling (breed: Sagamihangbak, two per plastic pot having a diameter of 7.5 cm) at 1-leaf stage in an amount of 10 mL of the compound/pot. After air-drying, the pot was transferred to a moist chamber provided in the greenhouse, and inoculated by spray with a zoosporic suspension of Pseudoperonospora cubensis. On the 7th day after inoculation the infected area rate for the leaves was examined. Evaluation was carried out by the following criteria.
The infected area rate for untreated groups in the examination was 60 to 80%.

The test system of series [3] is Phytophthora infestans. Type of series: in vivo. The conditions noted are these: 250 ppm spray, tomato seedling 4-leaf stage, 4th day after inoculation; untreated not less than 60%.
Series [4] concerns Pyricularia oryzae. The format is in vivo. To be noted: 250 ppm spray, rice plant 4-leaf stage, 7th to 10th days after inoculation; untreated not less than 60.

Regarding `Cc1ccc(C(=O)NC[C@@H](NC(=O)Oc2ccccc2)C(C)C)cc1` [Comparative Compound, reference compound], the “Effect: controlling effect against grape downy mildew (infected area rate)” value in series [1] is on record as “C (the infected area rate of not less than 50%)”. In addition, the “Effect: controlling effect against cucumber downy mildew (infected area rate)” value in series [2] was “C (the infected area rate of not less than 50%)”. In addition, the “Effect: controlling effect against tomato late blight (infected area rate)” value in series [3] is “C (Infected area rate of not less than 50%)”. Moreover, in series [4], the “Effect: controlling effect against rice blast disease (number of lesions per pot)” value is reported as “A (The number of lesions of less than 5)”.
The term melting point denotes the temperature of the solid-liquid transition. The compound `CC(C)[C@@H](CNC(=O)c1cc2ccccc2o1)NC(=O)[C@H](C)NC(=O)OC(C)(C)C` [Compound No. 601, N-[1-(S)-[[(benzofuran-2-carbonyl)amino]methyl]-2-methylpropyl]2-(S)-[(1,1-dimethylethyloxycarbonyl)amino]propionamide] registered a melting point of 163.1 °C. Further, in series [1], the “Effect: controlling effect against grape downy mildew (infected area rate)” value was “B (the infected area rate of 5% to less than 50%)”. In series [2], the “Effect: controlling effect against cucumber downy mildew (infected area rate)” value is “A (the infected area rate of less than 5%)”. For the same compound, the “Effect: controlling effect against tomato late blight (infected area rate)” value in series [3] was “B (Infected area rate of 5% to less than 50%)”.
